The source of these data is patent US20120264793A1, “Pharmaceutical Use of 2',2-Bis-Thiazole Non-Nucleoside Compounds as Hepatitis C Virus Inhibitor” (Shanghai Institute of Materia Medica, Chinese Academy of …, priority 2009, published 2012).

Where two headings read alike, the source gives them in different places.

The test system of data set [1] is HCV (J399E) inserted with enhanced green fluorescent protein (EGFP). The experiment in a line: microbe, parasite or virus in culture. The format is cell-based, Hepatitis C Virus. The following applies: for IC50: read-out: IC50 (concentration at which 50% of the replication of HCV was inhibited); for SI (bioactivity selective index): from CC50 and IC50 in Huh7.5.1 cells, SI greater than 2 means effective. The method, then:
The in vitro anti-HCV activity assay of the 2′,2-bis-thiazole non-nucleoside compounds at cellular level was performed by using an anti-HCV activity assay protocol recognized by one skilled in the art.
The variation of the green fluorescence intensity was recorded on a microplate reader and cytotoxicity was measured at the same time, so as to evaluate the influence of the compound on the replication activity of HCV.
Compounds to be tested were dissolved in DMSO to prepare a stock solution before the test. Upon using, the stock solution was diluted to a desired concentration with DMEM (Dulbecco's Modified Eagle Media, purchased from GibcoBRL company (Life Technologies, Grand Island, N.Y., USA)) containing 10% FBS (fetal bovine serum, purchased from Hyclone company (Logan, Utah, USA)).
Positive control: ribavirin (purchased from Sigma/Aldrich). It was dissolved in DMSO to prepare a stock solution and stored at −20° C. before use, and diluted to a desired concentration upon using.
(§1) Huh7.5.1 cells (10% FBS, DMEM) at 10^5 cells/ml were inoculated on a 96-well plate (Costar 3904) with 100 μl per well. 24 h later, the supernatant of the culture media was sucked out, and 50 μl of virus supernatant with MOI=0.1 was added. 8 h later, 50 μl of the testing compound solution was added and 100 μl of culture media was supplemented. After incubation for 72 h, the supernatant was sucked out, and read on a fluorescent microplate reader (Ex=488 nm, Em=516 nm). Then each well was added with 20 μl of MTT (5 mg/ml) and additional 50 μl of culture media. 4 h later, 100 μl of MTT lysis solution was added. 6 h later, reading was performed at a wavelength of 570 nm.

The nature of a further data set: in vitro. Type of data set: cell-based. Particulars: human. Here is the method: (§2) The anti-HCV activity assay was performed by using Huh7.5.1 cells (presented by WUHAN INSTITUTE of VIROLOGY, CHINESE ACADEMY OF SCIENCES) infected by HCV (J399E) inserted with enhanced green fluorescent protein (EGFP). The variation of the green fluorescence intensity was recorded on a microplate reader and cytotoxicity was measured at the same time, so as to evaluate the influence of the compound on the replication activity of HCV.
(§3) Compounds to be tested were dissolved in DMSO to prepare a stock solution before the test. Upon using, the stock solution was diluted to a desired concentration with DMEM (Dulbecco's Modified Eagle Media, purchased from GibcoBRL company (Life Technologies, Grand Island, N.Y., USA)) containing 10% FBS (fetal bovine serum, purchased from Hyclone company (Logan, Utah, USA)). The final concentration of DMSO for cell culture was less than 0.25% (V/V, Volume to Volume), and such DMSO concentration would not affect the growth of cells.
as §1

The subject of the next data set is Huh7.5.1 cells. The experiment in a line: in vitro. Type of data set: cell-based. Here is the method:
as §2, §3, §1

The mark [2] stands for this setting: Hepatitis C virus, Huh-7.5.1, 72 h.
[3] abbreviates: HCV (J399E)-EGFP infected Huh7.5.1 cells, MOI=0.1, 72 h incubation.

By CC50 is commonly meant the concentration at which the toxic effect on the cells reaches its halfway point. Read a high CC50 as better tolerance by the cells. As for `CC(C)Cc1sc(-c2nccs2)nc1C(=O)NCc1ccccc1` [Compound C357], the IC50 in data set [1] (setting [2]) is 2.8 µM. Also, the “SI (bioactivity selective index)” value in data set [1] is reported as >11.9. Moreover, the CC50 at 72 h in the data set “in vitro” is > 33.3 µM.
Take `CCOC(=O)/C=C/c1nc(-c2nccs2)sc1CC(C)C` [Compound C322-2]: the IC50 in data set [1] (setting [3]) turned out to be 9.8 µM. The CC50 in the data set on Huh7.5.1 cells was > 100 µM.
Turning to `O=C(O)c1nc(-c2nccs2)sc1Cc1ccccc1` [Compound C302], the IC50 in data set [1] (setting [3]) came to 25.7 µM. In the data set on Huh7.5.1 cells, this molecule came in with a CC50 of 67.5 µM.
Turning to `CC(C)Cc1sc(-c2nccs2)nc1C(N)=O` [Compound C267], in data set [1] (setting [3]), the IC50 is 4.9 µM. In addition, the CC50 in the data set on Huh7.5.1 cells is > 100 µM.
As to `NC(=O)c1ncn([C@@H]2O[C@H](CO)[C@@H](O)[C@H]2O)n1` [ribavirin, reference compound], the IC50 in data set [1] (setting [2]) amounted to 48.3 µM. For the same molecule, the “SI (bioactivity selective index)” value in data set [1] worked out at 9.3. The same molecule registered a CC50 at 72 h in “in vitro” of 449 µM.
`CNC(=O)c1nc(-c2nccs2)sc1CC(C)C` [Compound C281]: the IC50 in data set [1] (setting [3]) was 13.6 µM. The CC50 with Huh7.5.1 cells was > 100 µM.
In the same order, the values of `CC(C)Cc1sc(-c2nccs2)nc1C(=O)Nc1ccccc1` [Compound C343] are 19.1 µM and > 100 µM.
In the case of `Cc1cnc(-c2nc(C(=O)NCc3ccc(F)cc3)c(CC(C)C)s2)s1` [Compound W28MF], the IC50 in data set [1] (setting [2]) came out at 0.8 µM. Besides, in data set [1], the “SI (bioactivity selective index)” value is recorded as >125. In addition, the CC50 at 72 h in the data set “in vitro” was > 100 µM.
Turning to `CCC(O)c1nc(-c2nccs2)sc1CC(C)C` (centres unmarked) [Compound C282-2], the IC50 in data set [1] (setting [2]) is 2.8 µM. Further, the “SI (bioactivity selective index)” value in data set [1] is listed as >35.7. The CC50 at 72 h in the data set “in vitro” was > 100 µM.
Turning to `CCC(=O)c1nc(-c2nccs2)sc1CC(C)C` [Compound C280-4], the IC50 in data set [1] (setting [3]) was found to be 8.9 µM. Besides, the CC50 in the data set on Huh7.5.1 cells was > 100 µM.
For the molecule `CC(C)Cc1sc(-c2nccs2)nc1CNC(=O)c1nc(-c2nccs2)sc1CC(C)C` [Compound C503], the IC50 in data set [1] (setting [2]) was determined as 1.4 µM. Also, the “SI (bioactivity selective index)” value in data set [1] is reported as >71. Besides, the CC50 at 72 h in “in vitro” is > 100 µM.
With `CCOC(=O)CCc1nc(-c2nccs2)sc1CC(C)C` [Compound C324-5], the IC50 in data set [1] (setting [3]) was determined as 36.6 µM. Also, the CC50 in the data set on Huh7.5.1 cells is > 100 µM.
In the case of `CC(C)Cc1sc(-c2nccs2)nc1C(=O)NCc1ccc(F)cc1` [Compound W28F], in data set [1] (setting [2]), the IC50 was determined as 7.5 µM. Besides, the “SI (bioactivity selective index)” value in data set [1] is given as 4.9. The molecule also showed a CC50 at 72 h in “in vitro” of 36.9 µM.
